Assay results taken from paper PMC7065195 (2020).

What was measured:
[1] = system: poly A–poly U (poly rA–poly rU, AU-RNA) (RNA, polymer) A/U; assay: UV thermal melting at 260 nm; conditions: Na+ (sodium cacodylate, I=0.05 M); pH 7.0; ratio r=[compound]/[polynucleotide]=0.1; per base
[2] = system: poly dAdT–poly dAdT (poly(dA-dT)2, AT-DNA) (DNA, polymer) AT; assay: UV thermal melting at 260 nm; conditions: Na+ (sodium cacodylate, I=0.05 M); pH 7.0; ratio r=[compound]/[polynucleotide]=0.1; per base

ΔTm [1]: +9.5 ± 0.5 °C | ΔTm [2]: +10.0 ± 0.5 °C
Structure (SMILES): Cc1cc(-c2ccc(-c3ccc(-c4cc(C)c(B(c5c(C)cc([N+](C)(C)C)cc5C)c5c(C)cc([N+](C)(C)C)cc5C)c(C)c4)s3)s2)cc(C)c1B(c1c(C)cc([N+](C)(C)C)cc1C)c1c(C)cc([N+](C)(C)C)cc1C
